Reference: patent publication EP1944022A1, “PHARMACEUTICAL COMPOSITIONS COMBINING […] ANTICONVULSANT AGENTS FOR THE TREATMENT OF CHRONIC AND ACUTE PAIN” (ESPINOZA ABDALA, Leopoldo de Jesús, priority 2005, dated 2007)

Tested on: nociceptive pain
Assay: uric acid-induced knee joint inflammation and pain in rats, recovery of Functionality Ratio (AUC over 4 hours)
Assay type: in vivo, female Wistar rats
Conditions: rat
Protocol: An experimental preclinical study was performed that compares the analgesic effect of tramadol and gabapentin administered individually and in combination, using female Wistar rats weighting from 160 to 180 g, which were intraarticularly injected 0.05 ml uric acid suspended in mineral oil into knee joint of left hindleg under anesthesia in order to cause inflammation and pain. An electrode was connected at the plantar region of hindlegs. The rats were placed in a roller of 30 cm of diameter rotating at 4 rpm during two-minute periods. The time of contact between each electrode of the rats' hindlegs and the roller was registered. The data are expressed as Functionality Ratio (FR). […] At the same time the medicaments, alone or in combination, were administered, and the Functionality Ratio every 30 minutes for 4 hours was determined. […]
Doses used for the combination were 3.16, 5.62, 10.0 or 17.78, 31.62, 56.23, 100.0 mg/kg of tramadol and those used for gabapentin were 31.6, 56.2, 100.0, 177.8, 316.2 mg/kg. Thus, the possible synergistic interaction (a total of 24 combinations) was analyzed.
The synergism between gabapentin and tramadol was calculated with the synergistic interaction surface analysis and an isobolographic method (Tallarida et al., 1989). The area under the curve (AUC) was calculated for each of the combinations and for each of the components.

SMILES	total analgesic effect, area under the curve (AUC) (gabapentin alone 316.2 mg/kg, 4-hours observation period) [area units]	total analgesic effect, area under the curve (AUC) (in vivo) [area units]
NCC1(CC(=O)O)CCCCC1 [Gabapentin]	121.5 ± 30.3	
COc1cccc(C2(O)CCCCC2CN(C)C)c1 (mixture of isomers) [tramadol, (±) cis-2-[(dimethylamino)methyl]-1-(3-metoxyphenyl) cyclohexanol]		207.7 ± 24.7
